Settings: 101.33 kPa, Liquid, Hot wire method

CC1CCCC1 [methylcyclopentane]
Settings	thermal conductivity [W/m/K]	thermal diffusivity [m2/s]
258.71 K	0.1273	–
258.96 K	0.1271	–
259.11 K	0.127	–
259.52 K	–	9.4e-08
260.16 K	–	9.37e-08
260.57 K	–	9.34e-08
277 K	0.1212	–
277.24 K	0.1211	–
277.41 K	0.121	–
277.86 K	–	8.8e-08
278.49 K	–	8.85e-08
278.91 K	–	8.82e-08
294.9 K	0.1155	–
295.15 K	0.1154	–
295.32 K	0.1153	–
295.76 K	–	8.24e-08
296.37 K	–	8.25e-08
296.8 K	–	8.24e-08
312.57 K	0.1101	–
312.82 K	0.11	–
312.99 K	0.1099	–
313.44 K	–	7.77e-08
314.04 K	–	7.73e-08
314.46 K	–	7.71e-08

C1=CCCC1 [cyclopentene]
Settings	thermal conductivity [W/m/K]	thermal diffusivity [m2/s]
258.72 K	0.1491	–
258.94 K	0.1489	–
259.1 K	0.1488	–
259.64 K	–	1.13e-07
260.25 K	–	1.12e-07
260.69 K	–	1.12e-07
276.99 K	0.1409	–
277.23 K	0.1407	–
277.4 K	0.1406	–
277.93 K	–	1.05e-07
278.57 K	–	1.05e-07
279.02 K	–	1.05e-07
294.92 K	0.133	–
295.16 K	0.1328	–
295.33 K	0.1327	–
295.88 K	–	9.78e-08
296.54 K	–	9.78e-08
296.99 K	–	9.74e-08
312.58 K	0.1258	–
312.84 K	0.1256	–
313.02 K	0.1255	–
313.55 K	–	9.09e-08
314.21 K	–	9.08e-08
314.67 K	–	9.05e-08

CCCc1ccccc1 [propylbenzene]
Settings	thermal conductivity [W/m/K]	thermal diffusivity [m2/s]
261.18 K	0.1358	–
261.4 K	0.1357	–
261.57 K	0.1356	–
262.04 K	–	9.04e-08
262.63 K	–	9.06e-08
263.06 K	–	9.06e-08
275.09 K	0.133	–
275.33 K	0.1328	–
275.5 K	0.1328	–
275.98 K	–	8.84e-08
276.61 K	–	8.87e-08
277.03 K	–	8.85e-08
294.17 K	0.1286	–
294.42 K	0.1285	–
294.6 K	0.1285	–
295.08 K	–	8.49e-08
295.74 K	–	8.53e-08
296.19 K	–	8.52e-08
312.54 K	0.1247	–
312.79 K	0.1246	–
312.97 K	0.1245	–
313.45 K	–	8.14e-08
314.1 K	–	8.16e-08
314.56 K	–	8.15e-08
329.54 K	0.1208	–
329.79 K	0.1207	–
329.98 K	0.1207	–
330.45 K	–	7.8e-08
331.09 K	–	7.79e-08
331.57 K	–	7.81e-08

Cc1ccc(C)cc1 [1,4-dimethylbenzene]
Settings	thermal conductivity [W/m/K]	thermal diffusivity [m2/s]
287.33 K	0.1296	–
287.55 K	0.1295	–
287.73 K	0.1294	–
288.19 K	–	8.96e-08
288.74 K	–	8.89e-08
289.19 K	–	8.92e-08
294.03 K	0.1278	–
294.27 K	0.1278	–
294.44 K	0.1277	–
294.86 K	–	8.78e-08
295.48 K	–	8.82e-08
295.9 K	–	8.82e-08
311.71 K	0.1234	–
311.94 K	0.1232	–
312.11 K	0.1231	–
312.56 K	–	8.41e-08
313.14 K	–	8.38e-08
313.56 K	–	8.36e-08
328.75 K	0.1191	–
328.99 K	0.119	–
329.16 K	0.1189	–
329.6 K	–	8.03e-08
330.21 K	–	8.02e-08
330.63 K	–	8.01e-08

[2H]C1([2H])C([2H])([2H])C([2H])([2H])C([2H])([2H])C([2H])([2H])C1([2H])[2H] [cyclohexane-d12]
Settings	thermal conductivity [W/m/K]	thermal diffusivity [m2/s]
280.46 K	0.1163	–
280.63 K	0.1162	–
280.74 K	0.1161	–
280.97 K	–	6.83e-08
281.35 K	–	6.85e-08
281.6 K	–	6.81e-08
291.18 K	0.1133	–
291.34 K	0.1133	–
291.45 K	0.1132	–
291.65 K	–	6.5e-08
292.04 K	–	6.54e-08
292.29 K	–	6.53e-08
303.67 K	0.11	–
303.83 K	0.1099	–
303.92 K	0.1098	–
304.14 K	–	6.23e-08
304.49 K	–	6.22e-08
304.72 K	–	6.19e-08
315.91 K	0.1067	–
316.06 K	0.1066	–
316.17 K	0.1066	–
316.35 K	–	5.91e-08
316.71 K	–	5.93e-08
316.96 K	–	5.96e-08
326.3 K	0.1042	–
326.44 K	0.104	–
326.54 K	0.104	–
326.75 K	–	5.75e-08
327.08 K	–	5.73e-08
327.31 K	–	5.72e-08

CC(C)=C(C)C [2,3-dimethyl-2-butene]
Settings	thermal conductivity [W/m/K]	thermal diffusivity [m2/s]
258.89 K	0.1356	–
259.17 K	0.1355	–
259.37 K	0.1354	–
260.14 K	–	9.38e-08
260.96 K	–	9.41e-08
261.54 K	–	9.41e-08
278.21 K	0.1285	–
278.5 K	0.1283	–
278.72 K	0.1283	–
279.54 K	–	8.88e-08
280.38 K	–	8.85e-08
281 K	–	8.85e-08
294.09 K	0.1228	–
294.4 K	0.1226	–
294.63 K	0.1225	–
295.49 K	–	8.48e-08
296.37 K	–	8.44e-08
297.02 K	–	8.45e-08
312.76 K	0.1162	–
313.09 K	0.116	–
313.34 K	0.1159	–
314.2 K	–	7.96e-08
315.15 K	–	7.95e-08
315.82 K	–	7.94e-08
322.4 K	0.1128	–
322.74 K	0.1126	–
322.98 K	0.1125	–
323.81 K	–	7.58e-08
324.73 K	–	7.56e-08
325.39 K	–	7.54e-08
326.42 K	0.1116	–
326.77 K	0.1115	–
327.02 K	0.1114	–
327.89 K	–	7.6e-08
328.9 K	–	7.63e-08
329.57 K	–	7.59e-08

C1CCCCCC1 [cycloheptane]
Settings	thermal conductivity [W/m/K]	thermal diffusivity [m2/s]
262.18 K	0.1272	–
262.37 K	0.1271	–
262.5 K	0.1271	–
262.77 K	–	8.84e-08
263.24 K	–	8.9e-08
263.56 K	–	8.91e-08
280.17 K	0.1228	–
280.35 K	0.1227	–
280.48 K	0.1227	–
280.76 K	–	8.39e-08
281.19 K	–	8.4e-08
281.5 K	–	8.4e-08
297.01 K	0.1187	–
297.2 K	0.1185	–
297.33 K	0.1185	–
297.59 K	–	7.97e-08
298.03 K	–	7.98e-08
298.33 K	–	7.98e-08
320.05 K	0.1132	–
320.23 K	0.1131	–
320.36 K	0.113	–
320.62 K	–	7.47e-08
321.05 K	–	7.46e-08
321.34 K	–	7.46e-08

C=CCCCC [hex-1-ene]
Settings	thermal conductivity [W/m/K]	thermal diffusivity [m2/s]
259.93 K	0.1304	–
260.19 K	0.1305	–
260.47 K	0.1303	–
261.24 K	–	9.12e-08
262.13 K	–	9.15e-08
263.04 K	–	9.14e-08
275.98 K	0.1247	–
276.28 K	0.1249	–
276.6 K	0.1245	–
277.38 K	–	8.63e-08
278.3 K	–	8.69e-08
279.25 K	–	8.67e-08
295.84 K	0.1181	–
296.26 K	0.1178	–
296.53 K	0.1179	–
297.34 K	–	8.25e-08
298.59 K	–	8.22e-08
299.33 K	–	8.2e-08
301.27 K	0.1161	–
301.73 K	0.116	–
301.96 K	0.1158	–
302.77 K	–	8.05e-08
304.08 K	–	8.06e-08
304.81 K	–	8.04e-08
314.67 K	0.1119	–
315.04 K	0.1115	–
315.38 K	0.1112	–
316.21 K	–	7.67e-08
317.27 K	–	7.71e-08
318.31 K	–	7.68e-08
329.14 K	0.1071	–
329.53 K	0.107	–
329.89 K	0.1068	–
330.76 K	–	7.42e-08
331.81 K	–	7.39e-08
332.96 K	–	7.4e-08

From the NIST ThermoML archive (doi:10.1021/je034162x)
